{"source": "patent US10925851B2", "about": "(Regents of the University of Minnesota, priority 2018, dated 2021)", "key": {"[1]": {"target": "T1, Neprilysin (NEP) (Homo sapiens, UniProt P08473)", "T1 construct": "purchased Enzo Life Sciences", "T1 sequence (P08473 whole entry, species assumed)": "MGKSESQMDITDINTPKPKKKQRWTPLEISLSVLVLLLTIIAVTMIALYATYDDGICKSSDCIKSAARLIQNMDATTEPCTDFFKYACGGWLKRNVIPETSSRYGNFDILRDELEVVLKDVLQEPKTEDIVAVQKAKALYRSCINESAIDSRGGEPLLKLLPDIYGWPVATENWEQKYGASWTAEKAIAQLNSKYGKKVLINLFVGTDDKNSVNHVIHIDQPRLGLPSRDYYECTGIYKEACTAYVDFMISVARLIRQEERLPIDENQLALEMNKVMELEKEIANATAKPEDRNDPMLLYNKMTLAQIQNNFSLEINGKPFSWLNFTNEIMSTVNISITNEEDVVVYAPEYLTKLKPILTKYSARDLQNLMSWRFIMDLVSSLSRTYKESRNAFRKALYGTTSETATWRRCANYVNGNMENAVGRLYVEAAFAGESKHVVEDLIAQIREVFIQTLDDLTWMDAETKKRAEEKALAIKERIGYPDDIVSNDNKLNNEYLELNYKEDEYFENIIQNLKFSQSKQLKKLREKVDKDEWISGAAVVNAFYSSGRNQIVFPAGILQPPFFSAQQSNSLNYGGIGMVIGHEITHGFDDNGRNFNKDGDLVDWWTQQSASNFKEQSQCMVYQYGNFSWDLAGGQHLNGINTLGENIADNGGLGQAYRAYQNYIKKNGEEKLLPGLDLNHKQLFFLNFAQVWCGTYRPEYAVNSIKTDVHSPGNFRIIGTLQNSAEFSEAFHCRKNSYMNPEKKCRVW", "assay": "Neprilysin inhibition assay (Mca-[…](Dpn) FRET substrate)", "assay_type": "biochemical", "procedure": "Single concentration studies at 10 μM: Neprilysin inhibition assays were performed as described previously. The substrate Mca-[…](Dpn) and endopeptidase NEP were purchased from Enzo Life Sciences. […] Plate was mixed with a plate shaker at 1500 rpm for 30 seconds. The reaction was started with the addition of 6 μM of the FRET substrate and mixed for another 30 seconds at 1500 rpm. Mca fluorescence is quenched by Dpn until cleavage at Phe by NEP. The accumulation of the Mca was measured by exciting at 320 nm and reading the fluorescence at 405 nm on a Molecular Devices M5e plate reader for 40 minutes at room temperature. Percent inhibition is calculated in GraphPad Prism software using slopes in the linear range for each inhibitor at 10 μM.\nDose-Response Studies for NEP: Neprilysin inhibition assays were performed as described previously. The substrate Mca-[…](Dpn) and endopeptidase NEP were purchased from Enzo Life Sciences. Briefly, 0.5 nM NEP was incubated with 0.5 μL inhibitor. Compounds were tested at 3× dilutions from 100 μM final concentration in 50 mM HEPES pH 6.5 in 50 μL total volume in a black 384-well plate. Plate was mixed with a plate shaker at 1500 rpm for 30 seconds. The reaction was started with the addition of 6 μM of the FRET substrate and mixed for another 30 seconds at 1500 rpm. Mca fluorescence is quenched by Dpn until cleavage at Phe by NEP. The accumulation of the Mca was measured by exciting at 320 nm and reading the fluorescence at 405 nm on a Molecular Devices M5e plate reader for 40 minutes at room temperature. Steady state velocities were used to determine IC50 values by fitting the velocities vs. inhibitor concentration to the sigmoidal concentration-response curve (variable slope) using GraphPad Prism."}, "[2]": {"assay": "Distribution of tosedostat in brain and plasma (LC-MS/MS)", "assay_type": "in vivo, mouse", "settings": "10 mg/Kg i.p., over 4 hours", "procedure": "The subjects were intraperitoneally injected with ketamine-xylazine cocktail (100 mg/kg ketamine+10 mg/kg xylazine) 2 minutes prior to the time-point being analyzed. Specifically, samples were collected at 0.25, 0.5, 1, 2, and 4 hours after the drug administration. […] Samples were immediately centrifuged at 3000×rpm for 10 minutes at 4° C. and the separated top plasma layer was transferred into a new tube. Blood samples stored at −80° C. until LC-MS/MS analysis. For brain samples, brain tissue was extracted from the animal and washed with copious volumes of ice-cold D-PBS for removal of blood from the sample. and Collect brain and wash the brain with ice-cold DPBS properly to remove blood. The sample was then gently wiped with absorbent paper, weighed, and transferred into a 15 mL tube. The brain samples were homogenized by adding 1:5 (w/v) of ice-cold D-PBS into the tube and using mechanical homogenizer on them. Homogenized brain samples were also stored at −80° C.\nLC-MS/MS analysis: Frozen plasma and brain homogenate samples were thawed and rapidly quenched as detailed here. For plasma samples, 30 μL of DMSO and 60 μL of acetonitrile containing 0.1% formic acid were added to 30 μL of each unknown thawed plasma sample. For brain homogenate samples, 10 μL of DMSO and 60 μL of acetonitrile containing 0.1% formic acid were added to 30 μL of each unknown sample. […]"}, "[3]": {"target": "T2, Aminopeptidase N (APN) (Homo sapiens, UniProt P15144)", "T2 construct": "purchased R&D Systems", "T2 sequence (P15144 whole entry)": "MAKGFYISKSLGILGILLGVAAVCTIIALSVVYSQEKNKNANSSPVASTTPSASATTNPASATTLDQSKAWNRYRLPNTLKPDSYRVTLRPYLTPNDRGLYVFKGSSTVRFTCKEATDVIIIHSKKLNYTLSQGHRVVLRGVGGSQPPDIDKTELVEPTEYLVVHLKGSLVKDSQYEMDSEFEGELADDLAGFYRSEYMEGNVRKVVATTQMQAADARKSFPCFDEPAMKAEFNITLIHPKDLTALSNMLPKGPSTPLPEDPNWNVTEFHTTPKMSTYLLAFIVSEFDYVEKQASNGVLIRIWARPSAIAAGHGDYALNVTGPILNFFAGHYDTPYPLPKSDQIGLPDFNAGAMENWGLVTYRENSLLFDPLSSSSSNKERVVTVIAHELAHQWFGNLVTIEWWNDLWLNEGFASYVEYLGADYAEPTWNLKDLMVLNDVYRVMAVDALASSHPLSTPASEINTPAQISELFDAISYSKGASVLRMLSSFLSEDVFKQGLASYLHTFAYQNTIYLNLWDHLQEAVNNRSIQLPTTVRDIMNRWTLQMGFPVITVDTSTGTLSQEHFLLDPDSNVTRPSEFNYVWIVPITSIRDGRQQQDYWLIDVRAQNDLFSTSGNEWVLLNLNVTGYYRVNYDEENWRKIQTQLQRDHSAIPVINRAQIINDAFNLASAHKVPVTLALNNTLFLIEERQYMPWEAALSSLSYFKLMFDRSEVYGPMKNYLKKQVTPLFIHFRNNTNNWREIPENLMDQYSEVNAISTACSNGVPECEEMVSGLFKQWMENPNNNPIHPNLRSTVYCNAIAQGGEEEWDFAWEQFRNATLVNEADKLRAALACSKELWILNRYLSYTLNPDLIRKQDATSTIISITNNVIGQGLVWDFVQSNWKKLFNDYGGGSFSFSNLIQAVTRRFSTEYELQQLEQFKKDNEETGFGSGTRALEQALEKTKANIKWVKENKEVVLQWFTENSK", "assay": "Aminopeptidase N enzyme assay (Ala-AMC substrate, fluorescence)", "assay_type": "biochemical", "procedure": "Single concentration studies at 10 μM: Aminopeptidase N assays were performed as described previously. Aminopeptidase N was purchased from R&D Systems. Amino-4-methylcoumarin (Ala-AMC) was purchased from Bachem. Briefly, 0.1 μg/μL APN was incubated with 1 μL of 1 mM inhibitor in 50 mM Tris buffer, pH 7.5, in 100 μL volume in a black 384-well plate in duplicate. The reaction was started with the addition of Ala-AMC substrate at a final concentration of 100 μM. The cleavage accumulation AMC was measured by exciting at 380 nm and reading the fluorescence at 460 nm on a Molecular Devices SpectraMax i3 plate reader for 20 min at room temperature. Percent inhibition is calculated in GraphPad Prism software using slopes in the linear range for each inhibitor at 10 μM.\nDose-Response Studies for APN: Aminopeptidase N enzyme assays were performed as described previously.^26 Briefly, 0.1 μg/μL APN was incubated with 1 μL inhibitor in 50 mM Tris buffer, pH 7.5, in 50 μL volume in a black 384-well plate in duplicate. Compounds were tested at 3× dilutions from 100 μM final concentration. The reaction was started with the addition of Ala-AMC substrate at a final concentration of 100 μM. The accumulation of AMC was measured by exciting at 380 nm and reading the fluorescence at 460 nm on a Molecular Devices SpectraMax i3 plate reader for 30 min at room temperature. Steady state velocities were used to determine IC50 values by fitting the velocities vs. inhibitor concentration to the sigmoidal concentration-response curve (variable slope) using GraphPad Prism."}, "[4]": {"settings": "dose response, 3x dilutions from 100 μM"}}, "note": "Values joined by “and” are separate entries in the source; they are usually repeats but may differ in a detail not shown here. Equal entries are not always repeated.", "data": [{"smiles": "CC(C)C[C@@H](C(=O)N[C@H](C(=O)OC1CCCC1)c1ccccc1)[C@H](O)C(=O)NO", "note": "[Tosedostat]", "values": [{"measurement": "IC50", "setting": "[1]; [4]", "result": "900 nM and 890 nM"}, {"measurement": "inhibition at 10 µM", "setting": "[1]; inhibitor 10 μM, read-out: NEP @ 10 μM (percent inhibition)", "result": 79, "unit": "%"}, {"measurement": "presence in brain homogenate compared to plasma samples", "setting": "[2]", "result": "minimal presence of tosedostat in the brain homogenate samples"}, {"measurement": "activity against APN (in words)", "setting": "[3]", "result": "micromolar activity against APN"}, {"measurement": "IC50", "setting": "[3]; [4]", "result": "930 nM and 933 nM"}, {"measurement": "inhibition at 10 µM", "setting": "[3]; inhibitor 10 μM, read-out: APN @ 10 μM (percent inhibition)", "result": 83, "unit": "%"}]}]}
